Test system: MAS98.12 xenograft
Test: Patient-derived basal-like breast cancer xenograft, long-term treatment
Format: in vivo, mouse
Protocol: As described more fully below, we conducted a study in a patient-derived xenograft model of basal-like breast cancer, which is responsive to […], is highly vascularised and has a high expression of cPLA2. The mice received 30 mg Compound A/kg bw by ip. injection daily for a 7 days, then every second day for 14 more days. A group of control mice received DMSO only. Tumor volumes were measured throughout the study period.
Mouse model: MAS98.12. This model is established from a primary breast carcinoma at the Institute for Cancer Research, OUS [10]. The MR Cancer Group has previously characterised this model both with respect to metabolic profile, vascularisation, response to antiangiogenic treatment and response to PI3K inhibition. Treatment was initiated when the xenograft tumors had reached a volume of 83±51 mm3 (tumor volume=d1×d2×[…]). The majority of mice had bilateral tumors.
Mice received 30 mg/kg bw COMPOUND A in 50 μl DMSO, through intraperitoneal injection. Control groups received volume-matched, drug-free DMSO injections. Tumor volume measured with electronic callipers from day −3 until the end of the experiment (Day 19).
Arm 2: Long-term treatment One group (n=6, 11 tumors) treated with COMPOUND A daily for 7 days, then every 2nd day for the remainder of the study. Controls (n=6, 10 tumors) treated with drug-free DMSO according to the same protocol. […] Throughout the study, the tumor volume was measured every 2-3 days, and the body weight of the mice was monitored regularly.

With `CCCCCCCCc1ccc(OCC(=O)c2nc(C(=O)OC)cs2)cc1` [Compound A, Methyl 2-(2-(4-octylphenoxy)acetyl)thiazole-4-carboxylate] the “tumor volume as % of the control tumors” value (30 mg/kg bw ip daily for 7 days, then every second day for 14 more days, end of the study) was 36%, the “tolerability (in words)” value (30 mg/kg ip, long-term treatment) was “well tolerated with no overt adverse effects” and the body weight (30 mg/kg ip, Day 5) was 24 ± 3 g. For the same molecule, the body weight (30 mg/kg ip, Day 19) was 27 ± 3 g, the maximal tumor diameter (30 mg/kg ip, Day 19) was 10.5 mm and the “effect on tumor growth (in words)” value (30 mg/kg ip, FIG. 1) was “strong inhibitory effect on tumor growth”. The tumor volume (30 mg/kg ip, end of the study (Day 19), control 759±401) was 265±138 mm^3.

Reference: patent US11034666B2, “Anti-inflammatory and antitumor 2-oxothiazoles and 2-oxothiophenes compounds” (Avexxin AS, priority 2013, dated 2021)
